Results from US8912221B2, “Biaryl amide derivatives” (Hoffmann-La Roche Inc., priority 2010, dated 2014).

Columns and labels:
Bradykinin-1 receptor [1] = molecular target: T1, Bradykinin-1 receptor (Homo sapiens (Human), UniProt P46663); test: Receptor Binding Assay; conditions: membranes from CHO-K1 cells overexpressing Bradykinin-1 receptor; 6 nM [3H]Kallidin (Des Arg10, Leu9); read-out: B1R Binding Ki
Experimental: Binding assays were done with membranes from CHO-K1 cells overexpressing Bradykinin-1 receptor.
For binding, Bradykinin-1 receptor antagonist compounds were added in various concentrations in 50 mM Tris pH 7.4, 5 mM MgCl2 together with 6 nM Kallidin (Des Arg^10, Leu^9), [3,4-Prolyl-3,4-^3H(N)] (PerkinElmer, 1.85-4.44 TBq/mmol) to 40 μg membrane protein containing approximately 1 fmol Bradykinin-1 receptor and incubated for 15 min at 27° C. To determine non-specific binding 10 μM Lys-(Des-Arg^9)-Bradykinin (Bachem) was added. Membranes were harvested through GF/B (glass fiber filter; PerkinElmer) plates, equilibrated with 0.5% polyethylenimine, air dried at 50° C. for 2 hr. Radioactivity was determined by counting in a topcounter (NXT Packard). Specific binding was defined as total binding minus nonspecific binding and typically represents about 90-95% of the total binding. Antagonist activity is expressed as Ki: inhibitor concentration required for 50% inhibition of specific binding corrected for the concentration of the radioligand.

Bradykinin-1 receptor [2] = molecular target: T1, Bradykinin-1 receptor; test: Calcium Mobilization Assay; assay type: cell-based; conditions: GeneBLAzer Bradykinin (B1)-NFAT-bla CHO-K1 cells; antagonist activity, FLIPR; read-out: Ca mobilization IC50
Experimental: Calcium Mobilization Assay
GeneBLAzer® Bradykinin (B1)-NFAT-bla CHO-K1 cells (from Invitrogen) stably overexpressing the human bradykinin 1 receptor were cultured in DMEM (high glucose) supplemented with 10% dialysed FBS, 1% NEAA (non essential amino acids) 1% penicillin/streptomycin, 1% G418 and 0.1 mg/ml zeocin.
For the assay cells were grown overnight in 384-well black clear flat bottom polystyrene plates (Costar) at 37° C. at 5% CO2. After washing with DMEM, 20 mM Hepes, 2.5 mM probenecid, 0.1% BSA (DMEM assay buffer) cells were loaded with 4 μM Fluo-4 in the same DMEM assay buffer for 2 hours at 30° C. Excess dye was removed and cells were washed with DMEM assay buffer. 384-well compound plates were prepared with DMEM assay buffer/0.5% DMSO with or without various concentrations of test compounds. Usually compounds were tested for agonist and antagonist activity.
Test compounds were added to the assay plate and agonist activity was monitored as fluorescence for 80 seconds with a FLIPR (488 nm excitation; 510-570 nm emission; Molecular Devices). […] Increases in intracellular calcium are reported as maximum fluorescence after agonist exposure minus basal fluorescence before exposure. Antagonist activity is indicated as inhibitor concentration required for 50% inhibition of specific calcium increases.

T1 sequence (P46663 whole entry): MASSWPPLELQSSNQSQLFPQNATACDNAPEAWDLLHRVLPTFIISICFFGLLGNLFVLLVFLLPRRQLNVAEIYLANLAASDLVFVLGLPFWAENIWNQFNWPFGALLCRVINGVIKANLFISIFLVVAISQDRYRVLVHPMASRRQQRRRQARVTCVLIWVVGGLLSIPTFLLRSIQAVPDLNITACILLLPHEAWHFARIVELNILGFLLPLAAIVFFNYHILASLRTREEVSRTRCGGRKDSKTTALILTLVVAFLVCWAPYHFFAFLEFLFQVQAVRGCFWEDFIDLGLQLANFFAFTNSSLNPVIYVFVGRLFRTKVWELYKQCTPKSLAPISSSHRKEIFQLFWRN

| Compound | Ki (Bradykinin-1 receptor [1]) [nM] | IC50 (Bradykinin-1 receptor [2]) [nM] |
| --- | --- | --- |
| COCC(=O)NC1(C(=O)N[C@H](C)c2ncc(-c3cc(Cl)cc(Cl)c3OCC(F)F)cc2F)COC1 [Example 42, 3-(2-Methoxy-acetylamino)-oxetane-3-carboxylic acid ((R)-1-{5-[3,5-dichloro-2-(2,2-difluoro-ethoxy)-phenyl]-3-fluoro-pyridin-2-yl}-ethyl)-amide] | 119 | 201 |
| COc1cc(C(=O)NC2(C(=O)N[C@H](C)c3ccc(-c4cc(Cl)cc(F)c4-c4nnn(C)n4)cc3F)COC2)on1 [Example 43, 3-Methoxy-isoxazole-5-carboxylic acid (3-{(R)-1-[5′-chloro-3,3′-difluoro-2′-(2-methyl-2H-tetrazol-5-yl)-biphenyl-4-yl]-ethylcarbamoyl}-oxetan-3-yl)-amide] | 1.4 | 0.1 |
| COc1ncc(C(=O)NC2(C(=O)N[C@H](C)c3ccc(-c4cc(Cl)cc(F)c4-c4nnn(C)n4)cc3F)COC2)cn1 [Example 44, 2-Methoxy-pyrimidine-5-carboxylic acid (3-{(R)-1-[5′-chloro-3,3′-difluoro-2′-(2-methyl-2H-tetrazol-5-yl)-biphenyl-4-yl]-ethylcarbamoyl}-oxetan-3-yl)-amide] | 1.1 | 0.1 |

The remaining lines, values ahead:

| Ki (Bradykinin-1 receptor [1]) [nM] | IC50 (Bradykinin-1 receptor [2]) [nM] | Compound |
| --- | --- | --- |
| 4.3 | 0.6 | Cc1nnc(C(=O)NC2(C(=O)N[C@H](C)c3ccc(-c4cc(Cl)cc(Cl)c4OCC(F)F)cc3F)COC2)o1 [Example 38, 5-Methyl-[1,3,4]oxadiazole-2-carboxylic acid (3-{(R)-1-[3′,5′-dichloro-2′-(2,2-difluoro-ethoxy)-3-fluoro-biphenyl-4-yl]-ethylcarbamoyl}-oxetan-3-yl)-amide] |
| 8.7 | 3.9 | Cc1nnc(C(=O)NC2(C(=O)N[C@H](C)c3ncc(-c4cc(Cl)cc(Cl)c4OCC(F)F)cc3F)COC2)o1 [Example 39, 5-Methyl-[1,3,4]oxadiazole-2-carboxylic acid [3-((R)-1-{5-[3,5-dichloro-2-(2,2-difluoro-ethoxy)-phenyl]-3-fluoro-pyridin-2-yl}-ethylcarbamoyl)-oxetan-3-yl]-amide] |
| 1.1 | 0.1 | COc1ncc(C(=O)NC2(C(=O)N[C@H](C)c3ncc(-c4cc(Cl)cc(Cl)c4OCC(F)F)cc3F)COC2)cn1 [Example 40, 2-Methoxy-pyrimidine-5-carboxylic acid [3-((R)-1-{5-[3,5-dichloro-2-(2,2-difluoro-ethoxy)-phenyl]-3-fluoro-pyridin-2-yl}-ethylcarbamoyl)-oxetan-3-yl]-amide] |
| 7.1 | 3.6 | Cc1nnsc1C(=O)NC1(C(=O)N[C@H](C)c2ncc(-c3cc(Cl)cc(Cl)c3OCC(F)F)cc2F)COC1 [Example 41, 4-Methyl-[1,2,3]thiadiazole-5-carboxylic acid [3-((R)-1-{5-[3,5-dichloro-2-(2,2-difluoro-ethoxy)-phenyl]-3-fluoro-pyridin-2-yl}-ethylcarbamoyl)-oxetan-3-yl]-amide] |
